US20020025347A1, “Treatment of diabetic nephropathy and microalbuminuria” (Shiva Biomedical, LLC, priority 1999, published 2002)
Entries after “also recorded” stand apart in the source; their conditions may differ. Where a name gives a salt, the structure may show the parent alone.

Legend:
[1] = test system: STZ-induced diabetic rats; test: Treatment of STZ-induced diabetic rats with a salt of lithospermic acid; type: in vivo, Sprague-Dawley rats
Procedure: Sprague-Dawley rats (3-4 months of age, 250-300 g) were housed individually in sterile microisolator cages in a Specific Pathogen Free animal care facility. Rats were fed standard Rat chow and water was available ad libitum. Animals were maintained in temperature (25° C.) and humidity (40%) controlled rooms with a 12-h light/12 h dark cycle. Rats were randomly assigned to three experimental groups: Group I, nondiabetic control (n=10), Group II, untreated diabetic (n=10); and Group III, salt of lithospermic acid-treated diabetic (n=10). Insulin dependent diabetes was induced by a single intravenous injection of freshly prepared streptozotocin (STZ) (50 mg/kg in 0.1 M citrate buffer, pH 4.5) (Schmidt, R. E., et al., Diabetes 45(3):284-290 (1996)). A rat was considered diabetic when the nonfasting plasma glucose level was greater than about 17 mmol/L, 3 days following injection of STZ. Eight weeks following the administration of STZ, animals were treated with a salt of lithospermic acid by intramuscularly injections once daily (20 mg salt of lithospermic acid/kg body weight) for 8 weeks. Body weights were recorded weekly before and throughout the treatment period. Twenty-four hour urine and glycosylated hemoglobin levels were determined at 8, 12 and 16 weeks after injection of STZ. Urine samples were centrifuged (3000 rpm for 10 min) and the supernatant analyzed for creatinine and protein levels using standard techniques (Matsuo, Y., et al., Pharmacology 50:1-8 (1995)).

protein kinase C (PKC) = test: High glucose-induced protein kinase C activity in mesangial cells; type: cell-based, Murine; conditions: MES-13 cells, 30 mM glucose 5 days, then 25 or 50 μg/mL for 24 hours
Procedure: Murine renal mesangial cells were used in these experiments. The mesangial cells (MES-13) were cloned from transgenic mice. The twenty-fifth passage of the originally plated cells was used in the experiments. MES-13 cells were grown in Dulbecco's Modified Eagle's Medium (DMEM) containing 15% fetal bovine serum (FBS), 1% streptomycin-penicillin mixture, fungizone 0.2 μg/mL, 44 mM NaHCO3 and 14 mM HEPES at 37° C. in a humid atmosphere containing 5% CO2 and 95% air. Subcultures were seeded from confluent stock cultures by trypsinization in Hanks balanced salt solution containing 0.5 mM EDTA and 0.025% trypsin and grown in DMEM containing 15% FBS for 24 hr to near confluence (80%). Near confluent cells were incubated with serum-free DMEM to arrest cell growth and synchronize cell cultures. After 24 hr, the media was changed to serum-free DMEM containing 5.5 mM (normal) or 30 mM (high) glucose and cells cultured for 5 days. […] The amount of PKC in lysates of cells cultured in presence of high glucose (30 mM) and normal glucose (control, 5.5 mM) was determined using a commercially available kit (Upstate Biotechnology, Lake Placid N.Y.). […] Assay squares were placed into vials and radioactivity determined by scintillation counting. PKC activity was expressed as pmol/min/protein. Significant differences between group means were determined using the unpaired or paired Student's t-test.

TGF-β1 = test: High glucose-induced TGF-β1 secretion from mesangial cells (Western blot); type: cell-based, Murine; conditions: MES-13 cells, 30 mM glucose, 25 or 50 μg/mL for 24 hours
Procedure: (§1) Murine renal mesangial cells were used in these experiments. The mesangial cells (MES-13) were cloned from transgenic mice. The twenty-fifth passage of the originally plated cells was used in the experiments. MES-13 cells were grown in Dulbecco's Modified Eagle's Medium (DMEM) containing 15% fetal bovine serum (FBS), 1% streptomycin-penicillin mixture, fungizone 0.2 μg/mL, 44 mM NaHCO3 and 14 mM HEPES at 37° C. in a humid atmosphere containing 5% CO2 and 95% air. Subcultures were seeded from confluent stock cultures by trypsinization in Hanks balanced salt solution containing 0.5 mM EDTA and 0.025% trypsin and grown in DMEM containing 15% FBS for 24 hr to near confluence (80%). Near confluent cells were incubated with serum-free DMEM to arrest cell growth and synchronize cell cultures. After 24 hr, the media was changed to serum-free DMEM containing 5.5 mM (normal) or 30 mM (high) glucose and cells cultured for 5 days. Cells were then incubated with a salt of lithospermic acid at 25 μg/mL or 50 μg/mL for 24 hours. […] Protein concentration in cell lysate and culture media samples was determined by the method of Lowry with BSA as a standard (Lowry, O. H., et al., J. Biol. Chem. 193:265-275 (1951)). […] After washing, the antigen-antibody complexes were detected by enhanced chemiluminesence (Amersham International, England) and quantitated densitometry.

fibronectin = test: High glucose-induced fibronectin synthesis and secretion from mesangial cells (Western blot); type: cell-based, Murine; conditions: MES-13 cells, 30 mM glucose, 50 μg/mL
Procedure: as §1

ERK2 = test: High glucose-induced phosphorylation of ERK in mesangial cells (Western blot); type: cell-based, Murine; conditions: MES-13 cells, 30 mM glucose, 50 μg/mL
Procedure: as §1

MEK2 = test: High glucose-induced phosphorylation of MEK in mesangial cells (Western blot); type: cell-based, Murine; conditions: MES-13 cells
Procedure: as §1

[2] = treated diabetic rats, 20 mg/kg intramuscularly once daily for 8 weeks

HCT ([1]; treated diabetic rats): 37.44 ± 3.13%
Hb ([1]; treated diabetic rats): 14.44 ± 0.87 g/dL
MCH ([1]; treated diabetic rats): 21.13 ± 0.69 pg
WBC ([1]; treated diabetic rats): 11.95 ± 4.66 × 10(3)
Albumin [1, 2]: 1.75 ± 0.31 g/dL
Bilirubin [1, 2]: 1.14 ± 1.10 mg/dL
Cl [1, 2]: 101.5 ± 2.65 mmol/L
D. Bil [1, 2]: 0.67 ± 0.7 mg/dL
GOT [1, 2]: 239 ± 157 U/L
GPT [1, 2]: 102.75 ± 73.74 U/L
K [1, 2]: 19.53 ± 12.8 mmol/L
Na [1, 2]: 130.3 ± 6.24 mmol/L
Serum Protein [1, 2]: 6.28 ± 0.54 g/dL
Uric Acid [1, 2]: 1.6 ± 1.07 mg/dL
r-GTP [1, 2]: 2.75 ± 2.75 U/L
Compound: O=C(/C=C/c1ccc(O)c2c1[C@H](C(=O)O)[C@@H](c1ccc(O)c(O)c1)O2)O[C@H](Cc1ccc(O)c(O)c1)C(=O)O [salt of lithospermic acid]
effect on blood glucose levels in diabetic rats ([1]; 20 mg/kg intramuscularly once daily for 8 weeks): did not significantly lower blood glucose levels
urinary protein levels (FIG. 1) ([1]; 20 mg/kg intramuscularly once daily for 8 weeks, started 8 weeks after STZ, compared to untreated diabetic and nondiabetic control rats): significantly (p<0.001) lowered urinary protein levels; also recorded: approached the levels observed in control, nondiabetic rats
BUN [1, 2]: 28.1 ± 5.32 mg/dL
Cholesterol [1, 2]: 47 ± 7.35 mg/dL
Creatinine [1, 2]: 0.6 ± 0.12 mg/dL
Glucose [1, 2]: 508.5 ± 160.4 mg/dL
HbAlc ([1]; treated diabetic rats, p < 0.01 vs. control): 8.59 ± 1.59 %
PKC activity in high glucose (FIG. 2) (protein kinase C (PKC)): decreased PKC activity
TGF-β1 secretion in high glucose (FIG. 3) (TGF-β1): decreased high glucose-induced TGF-β1 secretion
fibronectin levels in high glucose (FIG. 4) (fibronectin): decreased fibronectin levels to about that of control levels
phosphorylated ERK2 in high glucose (FIG. 5) (ERK2): decrease in phosphorylated ERK2 to about control levels
phosphorylated MEK2 (MEK P) in high glucose (FIG. 7) (MEK2; high glucose, 50 μg/mL): approached control levels
total amount of MEK2 (MEK2-T, phosphorylated and nonphosphorylated) (FIG. 8) (MEK2; regardless of glucose concentration or treatment): remained constant
